Results from ChEMBL document CHEMBL3421625, “Discovery and optimization of novel antagonists to the human neurokinin-3 receptor for the treatment of sex-hormone disorders (Part I)” (J Med Chem, 2015).
Values after ≈ are worked out from the molar mass of the structure shown.

How the values were obtained:
[1] = Ratio of unbound drug level in brain to plasma in Sprague-Dawley rat at 1 mg/kg, iv measured at 10 mins; conditions: brain and plasma
Cynomolgus monkey = assay: Unbound AUC in castrated cynomolgus monkey at 5 mg/kg, po by LC-MS/MS analysis; assay type: ADME, organism-based, Macaca fascicularis; set-up: dose 5 mg/kg, route oral; conditions: in vivo
in vivo [2] = conditions: Sprague-Dawley, rat, po, 3 mg/kg
[3] = molecular target: T1, Gonadotropin-releasing hormone receptor (Homo sapiens) (UniProt P30968); assay: Inhibition of GnRH-R (unknown origin) at 10 uM relative to control
T1 sequence (whole entry): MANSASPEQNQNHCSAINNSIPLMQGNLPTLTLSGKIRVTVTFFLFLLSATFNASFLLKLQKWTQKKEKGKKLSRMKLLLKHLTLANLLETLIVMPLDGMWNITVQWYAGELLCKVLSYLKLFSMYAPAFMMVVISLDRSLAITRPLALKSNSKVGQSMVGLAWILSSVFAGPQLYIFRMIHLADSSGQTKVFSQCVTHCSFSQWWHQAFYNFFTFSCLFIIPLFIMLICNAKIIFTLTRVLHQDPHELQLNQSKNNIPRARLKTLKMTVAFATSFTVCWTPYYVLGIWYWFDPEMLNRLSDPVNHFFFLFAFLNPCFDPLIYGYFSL

[4] = Fraction unbound in rat plasma at 5 uM after 4 hrs by equilibrium dialysis method; assay type: ADME, cell-free
[5] = Solubility of the compound in PBS buffer at pH 7.4 by shake-flask method; assay type: physicochemical
Cytochrome P450 2C9 = Cytochrome P450 2C9 (Homo sapiens, UniProt P11712); assay: Inhibition of CYP2C9 (unknown origin) by luciferase reporter assay in presence of NADPH regeneration system; assay type: ADME
Cytochrome P450 3A4 = Cytochrome P450 3A4 (Homo sapiens, UniProt P08684); assay: Inhibition of CYP3A4 (unknown origin) by luciferase reporter assay in presence of NADPH regeneration system; assay type: ADME
[6] = Lipophilicity, log D of the compound at pH 7.4; assay type: physicochemical; conditions: buffer
Neuromedin-K receptor = molecular target: T2, Neuromedin-K receptor (Rattus norvegicus, UniProt P16177)
T2 sequence (P16177 whole entry): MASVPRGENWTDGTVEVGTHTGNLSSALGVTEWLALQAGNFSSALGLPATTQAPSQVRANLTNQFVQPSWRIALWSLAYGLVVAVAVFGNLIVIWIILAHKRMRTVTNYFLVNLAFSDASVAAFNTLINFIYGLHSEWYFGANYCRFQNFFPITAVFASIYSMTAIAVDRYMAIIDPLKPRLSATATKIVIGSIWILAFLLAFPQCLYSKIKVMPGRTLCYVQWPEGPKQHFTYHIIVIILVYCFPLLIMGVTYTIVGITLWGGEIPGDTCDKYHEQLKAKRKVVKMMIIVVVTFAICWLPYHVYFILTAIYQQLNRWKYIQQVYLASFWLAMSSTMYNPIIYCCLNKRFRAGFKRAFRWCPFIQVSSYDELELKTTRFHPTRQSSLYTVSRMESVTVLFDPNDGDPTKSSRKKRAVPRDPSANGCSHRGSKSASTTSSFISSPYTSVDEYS
Description: Displacement of [3H]-SB222200 from rat NK3R after 90 mins by scintillation counting analysis

Rattus norvegicus [7] = assay: Unbound AUC in Sprague-Dawley rat at 3 mg/kg, po by LC-MS/MS analysis; assay type: ADME, organism-based; set-up: dose 3 mg/kg, route oral; conditions: in vivo
Cytochrome P450 1A2 = molecular target: T3, Cytochrome P450 1A2 (Homo sapiens, UniProt P05177); assay: Inhibition of CYP1A2 (unknown origin) by luciferase reporter assay in presence of NADPH regeneration system; assay type: ADME
T3 sequence (P05177 whole entry): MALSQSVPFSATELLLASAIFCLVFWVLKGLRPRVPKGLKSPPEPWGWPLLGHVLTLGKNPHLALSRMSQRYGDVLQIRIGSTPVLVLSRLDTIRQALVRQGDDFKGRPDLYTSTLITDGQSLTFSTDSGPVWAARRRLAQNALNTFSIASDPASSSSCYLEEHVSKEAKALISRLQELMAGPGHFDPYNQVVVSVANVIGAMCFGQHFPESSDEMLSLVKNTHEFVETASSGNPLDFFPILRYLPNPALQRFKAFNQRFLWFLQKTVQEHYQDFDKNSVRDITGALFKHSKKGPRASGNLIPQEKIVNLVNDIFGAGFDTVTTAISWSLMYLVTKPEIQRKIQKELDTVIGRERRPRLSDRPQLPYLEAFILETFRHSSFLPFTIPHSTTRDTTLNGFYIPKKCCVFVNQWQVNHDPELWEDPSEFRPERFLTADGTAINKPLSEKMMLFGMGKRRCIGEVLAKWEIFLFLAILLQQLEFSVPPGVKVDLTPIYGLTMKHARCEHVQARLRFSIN

[8] = Tmax in castrated cynomolgus monkey at 5 mg/kg, po by LC-MS/MS analysis; assay type: ADME, organism-based, Macaca fascicularis; set-up: dose 5 mg/kg, route oral; conditions: male, in vivo
Cytochrome P450 2C19 = Cytochrome P450 2C19 (Homo sapiens, UniProt P33261); assay: Inhibition of CYP2C19 (unknown origin) by luciferase reporter assay in presence of NADPH regeneration system
Rattus norvegicus [9] = assay: Unbound AUC in Sprague-Dawley rat at 1 mg/kg, iv by LC-MS/MS analysis; assay type: ADME, organism-based; set-up: dose 1 mg/kg, route intravenous; conditions: in vivo
Rattus norvegicus [10] = assay: Unbound Cmax in Sprague-Dawley rat at 3 mg/kg, po by LC-MS/MS analysis; assay type: ADME, organism-based; set-up: dose 3 mg/kg, route oral; conditions: in vivo
Cytochrome P450 2D6 = Cytochrome P450 2D6 (Homo sapiens, UniProt P10635); assay: Inhibition of CYP2D6 (unknown origin) by luciferase reporter assay in presence of NADPH regeneration system; assay type: ADME
[11] = Total systemic clearance in Sprague-Dawley rat at 1 mg/kg, iv by LC-MS/MS analysis; assay type: ADME, organism-based; set-up: dose 1 mg/kg, route intravenous; conditions: in vivo
[12] = Fraction unbound in rat brain at 5 uM after 4 hrs by equilibrium dialysis method; assay type: ADME, tissue-based
NK-3 receptor = molecular target: T4, NK-3 receptor (Macaca mulatta, UniProt Q2WGM0)
T4 sequence (Q2WGM0 whole entry): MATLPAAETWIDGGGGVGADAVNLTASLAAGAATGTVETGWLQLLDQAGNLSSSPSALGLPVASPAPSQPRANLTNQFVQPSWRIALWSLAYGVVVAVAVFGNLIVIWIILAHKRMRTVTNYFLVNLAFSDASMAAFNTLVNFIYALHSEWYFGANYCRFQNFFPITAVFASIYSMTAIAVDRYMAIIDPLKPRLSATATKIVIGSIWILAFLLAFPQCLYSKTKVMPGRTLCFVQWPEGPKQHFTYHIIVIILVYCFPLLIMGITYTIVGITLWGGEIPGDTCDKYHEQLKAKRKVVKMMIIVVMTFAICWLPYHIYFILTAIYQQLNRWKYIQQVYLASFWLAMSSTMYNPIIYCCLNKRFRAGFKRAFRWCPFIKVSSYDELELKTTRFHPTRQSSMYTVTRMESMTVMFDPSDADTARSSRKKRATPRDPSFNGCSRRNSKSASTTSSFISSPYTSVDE
Description: Displacement of [3H]-SB222200 from monkey NK3R after 90 mins by scintillation counting analysis

in vivo [13] = conditions: Sprague-Dawley, rat, iv, 1 mg/kg
Description: Volume of distribution at steady state in Sprague-Dawley rat at 1 mg/kg, iv by LC-MS/MS analysis

[14] = Ratio of unbound drug level in brain to plasma in Sprague-Dawley rat at 1 mg/kg, iv measured at 60 mins; conditions: brain and plasma

Sequence of Cytochrome P450 3A4 (P08684 whole entry): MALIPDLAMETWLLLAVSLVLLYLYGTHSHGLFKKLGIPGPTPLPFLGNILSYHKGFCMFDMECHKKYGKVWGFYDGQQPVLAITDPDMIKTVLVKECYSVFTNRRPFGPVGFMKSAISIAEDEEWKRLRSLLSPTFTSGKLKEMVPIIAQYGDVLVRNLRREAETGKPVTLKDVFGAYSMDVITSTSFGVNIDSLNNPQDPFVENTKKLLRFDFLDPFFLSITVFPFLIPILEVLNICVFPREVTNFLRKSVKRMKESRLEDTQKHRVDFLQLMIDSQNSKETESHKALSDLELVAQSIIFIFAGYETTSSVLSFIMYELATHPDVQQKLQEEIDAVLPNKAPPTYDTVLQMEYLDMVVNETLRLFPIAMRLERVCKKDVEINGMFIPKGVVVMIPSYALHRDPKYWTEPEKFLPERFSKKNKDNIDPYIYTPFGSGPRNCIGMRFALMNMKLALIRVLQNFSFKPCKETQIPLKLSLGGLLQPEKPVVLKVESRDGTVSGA
Sequence of Cytochrome P450 2D6 (P10635 whole entry): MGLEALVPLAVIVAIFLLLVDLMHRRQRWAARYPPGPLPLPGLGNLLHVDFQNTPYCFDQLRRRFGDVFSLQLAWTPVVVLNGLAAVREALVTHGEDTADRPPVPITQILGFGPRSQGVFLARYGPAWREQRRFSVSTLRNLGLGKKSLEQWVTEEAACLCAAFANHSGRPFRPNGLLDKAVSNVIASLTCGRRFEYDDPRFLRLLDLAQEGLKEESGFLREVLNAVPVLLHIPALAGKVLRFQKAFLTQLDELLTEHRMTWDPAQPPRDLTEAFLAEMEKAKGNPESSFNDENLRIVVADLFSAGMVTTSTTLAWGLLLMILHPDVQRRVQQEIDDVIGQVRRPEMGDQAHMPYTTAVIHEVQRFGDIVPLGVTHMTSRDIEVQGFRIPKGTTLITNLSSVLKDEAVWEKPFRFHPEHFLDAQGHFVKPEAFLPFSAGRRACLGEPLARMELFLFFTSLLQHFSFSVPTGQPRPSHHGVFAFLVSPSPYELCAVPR
Sequence of Cytochrome P450 2C19 (P33261 whole entry): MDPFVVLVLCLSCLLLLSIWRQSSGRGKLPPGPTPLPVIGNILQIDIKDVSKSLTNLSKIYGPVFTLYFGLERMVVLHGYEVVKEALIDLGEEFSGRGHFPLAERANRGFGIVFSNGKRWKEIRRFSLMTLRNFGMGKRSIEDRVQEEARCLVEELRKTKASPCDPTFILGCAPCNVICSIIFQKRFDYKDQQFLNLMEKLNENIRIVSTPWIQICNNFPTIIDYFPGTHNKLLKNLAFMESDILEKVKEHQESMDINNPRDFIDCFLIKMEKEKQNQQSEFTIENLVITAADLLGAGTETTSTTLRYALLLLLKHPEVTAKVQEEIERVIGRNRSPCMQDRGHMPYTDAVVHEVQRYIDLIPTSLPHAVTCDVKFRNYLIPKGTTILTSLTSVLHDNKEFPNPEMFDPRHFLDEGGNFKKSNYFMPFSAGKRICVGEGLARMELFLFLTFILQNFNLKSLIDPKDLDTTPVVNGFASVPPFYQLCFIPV
Sequence of Cytochrome P450 2C9 (P11712 whole entry): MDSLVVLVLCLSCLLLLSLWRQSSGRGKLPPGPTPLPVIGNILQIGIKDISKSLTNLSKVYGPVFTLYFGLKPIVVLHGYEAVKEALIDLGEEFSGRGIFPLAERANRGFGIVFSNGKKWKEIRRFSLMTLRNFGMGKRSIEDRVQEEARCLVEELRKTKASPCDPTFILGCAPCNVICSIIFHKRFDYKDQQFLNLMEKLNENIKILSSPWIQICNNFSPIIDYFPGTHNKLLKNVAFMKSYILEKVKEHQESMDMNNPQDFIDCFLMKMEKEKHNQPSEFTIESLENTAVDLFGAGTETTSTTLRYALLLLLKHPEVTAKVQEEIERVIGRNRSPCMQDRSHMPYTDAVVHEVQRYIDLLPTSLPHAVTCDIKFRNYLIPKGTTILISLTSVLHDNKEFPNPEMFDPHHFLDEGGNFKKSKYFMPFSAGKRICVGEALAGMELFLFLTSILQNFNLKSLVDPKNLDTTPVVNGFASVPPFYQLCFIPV

Compound	Kp uu at 10 min [1]	Tmax (in vivo [2]) [min]	inhibition [3] [%]	fraction unbound at 4 h, 5 µM [4]	solubility thermodynamic [5] [µM]	IC50 (Cytochrome P450 2C9) [µM]	IC50 (Cytochrome P450 3A4) [µM]	Ki (Neuromedin-K receptor) [µM]	fAUC (Rattus norvegicus [7]) [µM·min]	IC50 (Cytochrome P450 1A2) [µM]	IC50 (Cytochrome P450 2C19) [µM]	fAUC (Rattus norvegicus [9]) [µM·min]	fCmax (Rattus norvegicus [10]) [nM]	IC50 (Cytochrome P450 2D6) [µM]	clearance [11] [mL/min/kg]	fraction unbound at 4 h, 5 µM [12]	Ki (NK-3 receptor) [µM]	Vd (in vivo [13]) [L/kg]	Kp uu at 1 h [14]	further results
Cc1nc(-c2nnc3n2CCN(C(=O)c2ccc(-c4cccs4)cc2)[C@@H]3C)cs1	0.2	45	30	0.055	118 (≈ 49.7 µg/mL)	21	50	0.076	60.3	26	34	16.9	443	> 100	7.4	0.028	0.02	1.4	0.1	fAUC (Cynomolgus monkey): 0.0646 µM·h; logD ([6]; read-out: logD): 3.1; Tmax [8]: 90 min
C[C@@H]1c2nnc(-c3csc(-c4ccc(F)cc4F)n3)n2CCN1C(=O)c1ccc(-c2cccs2)cc1	1.9	45	35	0.0008	0.4 (≈ 0.208 µg/mL)	3	19	0.013	0.1	21	4	0.2	0.14	7	8.9	0.001	0.00398	4.1	2.5	logD [6]: 5
